What was measured:
[1] = molecular target: T1, FAAH activity of a rat brain membrane fraction (Rattus norvegicus, UniProt P97612); format: biochemical; details: rat brain membrane fractions, TLC
T1 construct: Cis-9,10-octadecenoamide with rat brain membrane fraction +1 mM phenylmethylsulfonyl fluoride (PMSF); from tissue; host or cells: rat brain membrane fraction
T1 sequence (P97612 1-579): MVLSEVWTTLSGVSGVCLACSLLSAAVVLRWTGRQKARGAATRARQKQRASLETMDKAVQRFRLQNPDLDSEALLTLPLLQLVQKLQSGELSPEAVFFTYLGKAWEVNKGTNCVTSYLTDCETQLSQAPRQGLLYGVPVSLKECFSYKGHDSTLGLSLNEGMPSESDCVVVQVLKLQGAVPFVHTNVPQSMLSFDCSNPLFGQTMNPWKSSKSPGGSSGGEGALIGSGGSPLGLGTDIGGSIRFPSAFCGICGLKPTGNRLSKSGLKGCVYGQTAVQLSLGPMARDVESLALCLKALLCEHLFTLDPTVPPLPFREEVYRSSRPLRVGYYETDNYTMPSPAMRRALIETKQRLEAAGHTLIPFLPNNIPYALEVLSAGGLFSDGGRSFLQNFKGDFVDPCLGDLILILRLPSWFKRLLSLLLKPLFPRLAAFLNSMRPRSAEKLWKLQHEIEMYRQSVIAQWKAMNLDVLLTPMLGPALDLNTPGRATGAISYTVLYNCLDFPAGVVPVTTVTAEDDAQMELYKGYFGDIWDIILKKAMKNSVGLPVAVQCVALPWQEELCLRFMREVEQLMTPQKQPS
Protocol: In each case the enzymic reaction is performed is a separate reaction vessel and the product is spotted onto a TLC plate.

rats = assay: effect on spontaneous behavior of rats after ip injection (induction of sleep); format: in vivo, rat
Protocol: Synthetic cis-9,10-octadecenoamide was injected (ip) into rats in order to test its effect on spontaneous behavior at different doses: 1 (n=2), 2 (n=2), 5 (n=7), 10 (n=10), 20 (n=2), and 50 (n=2) mg, where n = number of rats tested. […] However, at a threshold of 5 mg and above there was a marked effect consisting of an induction of long-lasting motor quiescence associated with eyes closed, sedated behavior characteristic of normal sleep. Also as with normal sleep, the rats still responded to auditory stimuli with orienting reflex and sustained attention toward the source of stimulation. In addition, motor behavior was impaired. The latency to behavioral sedation following administration was about 4 minutes and subjects were normally active again after 1 hour (5 mg), 2 hour (10 mg), or 2.5 hour (20 mg and 50 mg).
(§1) We have compared cis-9,10-octadecenoamide to vehicle and the synthetic analogs listed in FIG. 1 to estimate the structural specificity of its sleep-inducing potential. […] More particularly, male Sprague-Dawley rats (300 g at the time of surgery) were implanted under halothane anesthesia (2-3%) with a standard set of electrodes for sleep recordings. This included two screw electrodes placed in the parietal bone over the hippocampus to record the subjects electroencephalogram (EEG) and two wire electrodes inserted in the neck musculature to record postural tone through electromyographic activity (EMG). Rats were housed individually with at libitum access to food and water. The dark-light cycle was controlled (12:12, lights on a 10:00 p.m.). One week after the surgery, rats were habituated to the recording conditions for at least three days. Upon the completion of the habituation period, rats received 2 milliliter (ip) of either: vehicle (5% ethanol/saline solution), cis-9,10-octadecenoamide (10 mg), or oleic acid (10 mg). […] Sleep recordings were visually scored and four stages were determined: wakefulness, slow-wave-sleep 1 (SWS1), slow-wave-sleep 2 (SWS2), and rapid eye movement (REM) sleep.

male Sprague-Dawley rats = assay: polysomnographic sleep recordings (EEG/EMG) in rats; format: in vivo, rat; details: 10 mg ip, recorded four hours
Text: as §1
These increases with respect to slow wave sleep (SWS) were at the expense of waking.

CCCCCCCC/C=C\CCCCCCCC(N)=O [cis-9,10-octadecenoamide, Cis-9,10-octadecenoamide]
conversion of 14C-cis-9,10-octadecenoamide to oleic acid [1]: Rapid conversion
duration of the biological (sleep-inducing) effect (rats; 10 mg per rat): two hours
threshold dose for induction of long-lasting motor quiescence with eyes closed, sedated behavior (rats; rats, ip): 5 mg
effect on spontaneous behavior (rats; rats, ip, lower doses 1 and 2 mg): no overt effect on spontaneous behavior
distribution of REM sleep (male Sprague-Dawley rats): does not seem to be altered
mean duration of the SWS individual periods compared to vehicle controls (male Sprague-Dawley rats): increase
total time of slow wave sleep (SWS) compared to vehicle controls (male Sprague-Dawley rats): increase in the total time of slow wave sleep (SWS)

From patent US6699682B2, “Assay for inhibitors of fatty-acid amide hydrolase” (The Scripps Research Institute, priority 1995, dated 2004)
